Tests used:
[1] = tested on: CD4+ T cells from MycHSP70-immunized HLA-DR4 transgenic mice; assay: Splenic CD4+ T cell proliferation from MycHSP70-immunized HLA-DR4 transgenic mice in response to epitopes; format: cell-based, mouse; conditions: antigen 10 μg/mL, 72 h, irradiated splenocytes, 3H-thymidine
Experimental: Figure 5 Immunization of HLA-DR4 transgenic mice with MycHSP70. (A) HLA-DR4 transgenic mice were immunized with recombinant MycHSP70. Serum anti-MycHSP70 and anti-mouse BiP antibody titers were measured in the 21 days following the first immunization. (B) Splenic CD4+ T cell proliferation from MycHSP70-immunized HLA-DR4 transgenic mice in response to MycHSP70_287–306 and BiP336–355 epitopes. Proliferation was determined by the incorporation of [3]-H thymidine. Data were representative of at least three independent trials. ***p < 0.001.
HLA-DR4 transgenic mice were obtained from Taconic, immunized twice (day 0, 14) with 100 μg of MycHSP70 with the same volume of complete Freund’s adjuvant subcutaneously into the tails, and sacrificed on day 21. MACS-purified CD4^+ T cells (1 × 10^5/mL) were cultured with irradiated splenocytes (1 × 10^6/mL) and an antigen (10 μg/mL) in RPMI 1640 medium supplemented with 5% FCS, 2 mM L-glutamine, 100 U/ml penicillin, 100 μg/ml streptomycin, and 5 × 10^−5 M 2-mercaptoethanol in a humidified incubator at 37 °C, 5% CO2, for 72 h. ^3H-thymidine was pulsed to each well, cells were harvested after an 18-hour incubation, and analyzed with a scintillation counter.

[2] = tested on: PBMCs from shared epitope (SE)-positive RA patients; assay: Proliferation of PBMCs from RA patients in response to MycHSP70-derived peptides (3H-thymidine uptake); format: cell-based, human
Experimental: (§1) Figure 3 MycHSP70_287–306 was a HLA-DR4-restricted epitope in RA. (A) The proliferation of PBMCs in RA patients (Shared epitope (SE) +/+ n = 12, SE +/− n = 22, SE−/− n = 9) and HDs (SE +/− n = 10) in response to MycHSP70_287–306. Proliferation was determined by the incorporation of [3]-H thymidine. The stimulation index (SI) was calculated using the following equation: (median thymidine uptake to an antigen)/(median thymidine uptake in the absence of an antigen). Horizontal line: the median. (B) Amino acid sequences of MycHSP70 (lower lines) and human BiP (upper lines) near the epitopes. Epitope sequences are indicated in bold letters. […]
(§2) PBMCs (1 × 10^6/mL) isolated with Ficoll-Paque (GE Healthcare) were cultured in the presence or absence of each peptide (10 μg/mL) with RPMI 1640 medium supplemented with 10% human serum, 2 mM L-glutamine, 100 U/ml penicillin, and 100 μg/ml streptomycin in a humidified incubator at 37 °C, 5% CO2, for 96 hours. […] Counts per minute were measured with a scintillation counter. In some experiments, the culture supernatants were collected after a 72-hour incubation and cytokine concentrations were measured in the culture supernatants by a human IFN-γ high sensitivity ELISA kit and human IL-17 high sensitivity ELISA kit (eBioscience). […]

[3] = tested on: PBMCs of HLA-DR4-positive RA patients; assay: Peptide-induced cytokine secretion from PBMCs (ELISA); format: cell-based, human
Experimental: Figure 3 MycHSP70_287–306 was a HLA-DR4-restricted epitope in RA. (A) The proliferation of PBMCs in RA patients (Shared epitope (SE) +/+ n = 12, SE +/− n = 22, SE−/− n = 9) and HDs (SE +/− n = 10) in response to MycHSP70_287–306. Proliferation was determined by the incorporation of [3]-H thymidine. The stimulation index (SI) was calculated using the following equation: (median thymidine uptake to an antigen)/(median thymidine uptake in the absence of an antigen). Horizontal line: the median. (B) Amino acid sequences of MycHSP70 (lower lines) and human BiP (upper lines) near the epitopes. Epitope sequences are indicated in bold letters. (C) Relationship between MycHSP70_287–306-induced proliferation and BiP336–355-induced proliferation in RA PBMCs (9 patients with SE +/+ and 14 patients with SE +/−). (D) Blockade of the MycHSP287–306-induced proliferation of PBMCs from HLA-DR4-positive RA patients (n = 6) using an anti-HLA-DR antibody. (E) The secretion of MycHSP287–306-induced IFN-γ from the PBMCs of HLA-DR4-positive HDs (n = 6) and RA patients (n = 8). (F) Blockade of MycHSP287–306-induced cytokine secretion from the PBMCs of HLA-DR4-positive RA patients (n = 6) using an anti-HLA-DR antibody. *p < 0.05, **p < 0.01, ***p < 0.001.
PBMCs (1 × 10^6/mL) isolated with Ficoll-Paque (GE Healthcare) were cultured in the presence or absence of each peptide (10 μg/mL) with RPMI 1640 medium supplemented with 10% human serum, 2 mM L-glutamine, 100 U/ml penicillin, and 100 μg/ml streptomycin in a humidified incubator at 37 °C, 5% CO2, for 96 hours. Cells were incubated for 18 h following a ^3H-thymidine pulse into each well and harvested using a semiautomated sample harvester. Counts per minute were measured with a scintillation counter. In some experiments, the culture supernatants were collected after a 72-hour incubation and cytokine concentrations were measured in the culture supernatants by a human IFN-γ high sensitivity ELISA kit and human IL-17 high sensitivity ELISA kit (eBioscience). […]

[4] = tested on: HLA-DR4-positive HD PBMCs; assay: Proliferation of healthy donor PBMCs in response to peptide (3H-thymidine uptake); format: cell-based, human; conditions: HLA-DR4-positive healthy donors (SE +/− n = 10), peptide 10 μg/mL
Experimental: as §1, §2

[5] = peptide 10 μg/mL, supernatant after 72-hour incubation, ELISA

DRTRKPFQSVIADTGISVSE [MycHSP70_287–306] was tested, and the “CD4+ T cell proliferation in response to peptide” value [1] was “significant CD4^+ T cell proliferation was induced”, the “peptide-induced PBMC proliferation under blockade of HLA-DR” value ([2]; HLA-DR4-positive RA patients n = 6, anti-HLA DR monoclonal antibody (L243) 10 μg/mL) was “clearly inhibited” and the “proliferation of PBMCs, mean stimulation index” value ([2]; screen of 43 MycHSP70-derived 20-mer peptides, 10 μg/mL, 96 hours, 3H-thymidine uptake, HLA-DR4-positive RA patients n = 20) was “highest proliferative responses”. The “peptide-induced IFN-γ and IL-17 secretion with anti-HLA-DR antibody” value ([3]; HLA-DR4-positive RA patients n = 6, anti-HLA DR antibody (L243) 10 μg/mL) was “blocked”, the “secretion of interferon (IFN)-γ” value [3, 5] was “induced” and the “secretion of interleukin (IL)-17” value [3, 5] was “induced”. For the same sequence, the “peptide-induced proliferation of HD PBMCs” value [4] was “not observed”.

Reference: publication PMC4772543, “Immune responses to Mycobacterial heat shock protein 70 accompany self-reactivity to human BiP in rheumatoid arthritis” (Scientific Reports, 2016)
